Test results: ChEMBL document CHEMBL1201862, “PubChem BioAssay data set” (2004)
Activity calls are given as the source filed them. For most assays here, no stated cut-off is given here; in the data, actives have a measured EC50 and inactives only a lower limit.

What was measured:
[1] = inhibitors of firefly luciferase expression or activity, dose response, H4 neuroglioma cells, luminescence (AID 1990); type: functional, cell-based
[2] = luciferase reporter signal reduction – luminescence, H4-C neuroglioblastoma cells, dose response (AID 2458); type: functional, cell-based;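 further: H4 neuroglioblastoma cells stably carrying a luciferase reporter gene fusion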
[3] = system: BJ; experiment: cytotoxicity toward BJ-TERT fibroblasts, dose response, cell-based, RAS-independent, luminescence (AID 1933); type: functional; conditions: Homo sapiens
[4] = cells; type: functional, cell-based
[5] = Luminescence Cell-Based Dose Response HTS to Identify Inhibitors of 5'UTR Stem-Loop Driven Prion Protein mRNA Translation in H4 Neuroglioblastoma Cells. [Related pubchem assays: 1827 (Project Summary), 1813 (Primary HTS)]; type: functional
[6] = inhibitors of SNCA 5'UTR-driven reporter translation, confirmation, H4 neuroglioma cells, luminescence (AID 1988); type: functional, cell-based
[7] = system: BJ; experiment: cells; type: functional, cell-based; conditions: Homo sapiens
[8] = Luminescence-based dose response cell-based high throughput screening assay for cytotoxic compounds using the IEC-6 intestinal epithelial cell line. [Related pubchem assays: 1858 (Summary AID.), 1825 (Counterscreen.), 1907 (Confirmation screen.)]; type: functional
[9] = system: BJ; experiment: cytotoxicity toward BJ-TERT-LT-ST fibroblasts, dose response, cell-based, RAS-independent, luminescence (AID 1935); type: functional; conditions: Homo sapiens;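 further: BJ fibroblasts immortalized with TERT plus LT and ST oncogenes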
[10] = cytotoxicity toward DRD oncogenic fibroblasts, dose response, cell-based, non-viral oncogenic, luminescence (AID 1934); type: functional; conditions: Homo sapiens
[11] = inhibitors of SNCA 5'UTR-driven translation, confirmation, luminescence, H4 neuroglioblastoma cells, dose confirmation (AID 2454); type: functional, cell-based;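 further: H4 neuroglioblastoma cells carrying an alpha-synuclein 5'UTR luciferase reporter; potency for inhibition of the luciferase signal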
[12] = system: BJ; experiment: cytotoxicity toward Ras-transformed BJeLR fibroblasts, dose response, cell-based, alamar blue fluorescence, cherrypicked samples (AID 2631); type: functional; conditions: Homo sapiens;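 further: confirmatory dose-response assay in RAS-dependent BJ fibroblasts engineered with TERT, LT and ST, with cytotoxicity read by fluorescence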
[13] = cytotoxicity in HPDE-C7 cells, cell-based, fluorescence, HTS (AID 430); type: functional; conditions: Homo sapiens
[14] = cytotoxicity in KRAS-transformed pancreatic duct cells, primary screen, cell-based, fluorescence, HTS (AID 431); type: functional; conditions: Homo sapiens;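 further: cell line used: HPDE-C7K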
[15] = target: DNA repair and recombination protein RAD54-like (Homo sapiens, UniProt Q92698); experiment: inhibitors of human RAD54 branch migration, confirmation, biochemical, fluorescence, cherry-picked samples, dose series (AID 651657); type: functional
[16] = target: Luciferin 4-monooxygenase (Photinus pyralis, UniProt P08659); experiment: firefly luciferase enzyme inhibitors, dose response, biochemical, luminescence (AID 1891)
[17] = Luminescence Cell-Based Dose Confirmation HTS to Identify Inhibitors of Platelet Dense Granule Release. [Related pubchem assays: 1663 (Primary HTS), 1678 (Summary of Project)]; type: functional
[18] = inhibitors of intracellular T. cruzi replication, confirmation, NIH3T3 host cells, beta-gal luminescence (AID 2044); type: functional, cell-based;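 further: intracellular parasites grown in NIH/3T3 mouse fibroblasts as host cells; luminescent beta-galactosidase reporter signal from transgenic T. cruzi replicating inside host cells; inhibitors lower the luminescence signal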
[19] = microbe, parasite or virus in culture; type: functional; conditions: Mycobacterium tuberculosis
[20] = cytotoxicity toward NIH3T3 fibroblasts, dose response, counter-screen, cell-based, ATP luminescence, mouse fibroblasts (AID 2010); type: functional;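 further: cells exposed to compound for about 90 hours before reading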
[21] = Luminescence Cell-Based Dose Retest to Confirm Inhibitors of Cancer Stem Cells. [Related pubchem assays (depositor defined):AID2717, AID2721]; type: functional; conditions: Homo sapiens
[22] = target: Epstein-Barr nuclear antigen 1 (Epstein-Barr virus (strain B95-8) (HHV-4) (Human herpesvirus 4), UniProt P03211); experiment: EBNA-1 inhibitors, dose response, biochemical, fluorescence polarization, 1536-well (AID 2381); parameters: species or system human gammaherpesvirus 4;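 further: fluorescence polarization of a Cy5 DNA probe bound by EBNA-1 protein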
[23] = target: Lytic switch protein BZLF1 (Epstein-Barr virus (strain B95-8) (HHV-4) (Human herpesvirus 4), UniProt P03206); experiment: EBV ZTA inhibitors, dose response, counter-screen for EBNA-1 inhibitor project, biochemical, fluorescence polarization, Epstein-Barr virus, 1536-well (AID 2377); parameters: species or system human gammaherpesvirus 4;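 further: fluorescence polarization of Cy5-labelled ZRE DNA probe bound by purified Zta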
[24] = target: T1, RNA-binding protein pos-1 (Caenorhabditis elegans, UniProt G5EF15); experiment: inhibitors of POS-1/mex-3 RNA binding, dose response, biochemical, fluorescence polarization (AID 1964);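 further: purified POS-1 fused to maltose binding protein made in E. coli; potency of compounds blocking POS-1 binding to fluorescent RNA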
T1 sequence (G5EF15 whole entry): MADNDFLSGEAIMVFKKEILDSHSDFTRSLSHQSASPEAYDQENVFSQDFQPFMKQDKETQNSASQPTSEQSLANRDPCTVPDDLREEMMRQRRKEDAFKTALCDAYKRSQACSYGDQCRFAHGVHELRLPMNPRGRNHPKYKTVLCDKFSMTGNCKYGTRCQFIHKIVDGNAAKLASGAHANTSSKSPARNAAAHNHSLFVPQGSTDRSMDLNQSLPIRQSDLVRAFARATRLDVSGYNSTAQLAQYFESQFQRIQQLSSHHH

[25] = target: Large T antigen (Simian virus 40, UniProt P03070); type: functional, Betapolyomavirus macacae;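 further: Confirmatory-stage PubChem screen for compounds that inhibit SV40 T antigen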
[26] = target: T2, Mannose-6-phosphate isomerase (Homo sapiens, UniProt P34949); experiment: inhibitors of human PMI, primary screen, biochemical, fluorescence intensity, coupled assay (AID 1209)
T2 sequence (P34949 whole entry): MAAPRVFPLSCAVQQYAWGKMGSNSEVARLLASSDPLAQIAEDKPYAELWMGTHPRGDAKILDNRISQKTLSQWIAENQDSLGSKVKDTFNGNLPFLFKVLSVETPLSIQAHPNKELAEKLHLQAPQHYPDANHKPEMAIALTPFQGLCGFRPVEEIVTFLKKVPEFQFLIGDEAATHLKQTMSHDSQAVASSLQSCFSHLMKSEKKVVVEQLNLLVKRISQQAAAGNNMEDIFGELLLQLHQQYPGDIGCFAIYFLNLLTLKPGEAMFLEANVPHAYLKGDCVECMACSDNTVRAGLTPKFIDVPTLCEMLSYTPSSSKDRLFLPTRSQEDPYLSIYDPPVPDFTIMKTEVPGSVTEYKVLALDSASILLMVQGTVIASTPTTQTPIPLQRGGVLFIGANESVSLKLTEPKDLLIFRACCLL

[27] = target: Aspartyl aminopeptidase (Plasmodium falciparum 3D7, UniProt Q8I2J3)
[28] = target: Procathepsin L (Homo sapiens, UniProt P07711)
Chain of Procathepsin L (P07711 whole entry): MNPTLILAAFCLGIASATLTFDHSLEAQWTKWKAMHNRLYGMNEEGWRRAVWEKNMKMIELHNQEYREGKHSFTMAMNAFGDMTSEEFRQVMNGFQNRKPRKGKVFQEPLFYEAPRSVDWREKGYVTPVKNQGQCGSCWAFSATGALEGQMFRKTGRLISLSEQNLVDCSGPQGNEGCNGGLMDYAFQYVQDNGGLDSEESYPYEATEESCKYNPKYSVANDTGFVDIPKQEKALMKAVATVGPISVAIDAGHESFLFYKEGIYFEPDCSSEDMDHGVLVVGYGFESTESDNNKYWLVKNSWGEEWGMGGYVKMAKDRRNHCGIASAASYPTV

Chain of Luciferin 4-monooxygenase (P08659 whole entry): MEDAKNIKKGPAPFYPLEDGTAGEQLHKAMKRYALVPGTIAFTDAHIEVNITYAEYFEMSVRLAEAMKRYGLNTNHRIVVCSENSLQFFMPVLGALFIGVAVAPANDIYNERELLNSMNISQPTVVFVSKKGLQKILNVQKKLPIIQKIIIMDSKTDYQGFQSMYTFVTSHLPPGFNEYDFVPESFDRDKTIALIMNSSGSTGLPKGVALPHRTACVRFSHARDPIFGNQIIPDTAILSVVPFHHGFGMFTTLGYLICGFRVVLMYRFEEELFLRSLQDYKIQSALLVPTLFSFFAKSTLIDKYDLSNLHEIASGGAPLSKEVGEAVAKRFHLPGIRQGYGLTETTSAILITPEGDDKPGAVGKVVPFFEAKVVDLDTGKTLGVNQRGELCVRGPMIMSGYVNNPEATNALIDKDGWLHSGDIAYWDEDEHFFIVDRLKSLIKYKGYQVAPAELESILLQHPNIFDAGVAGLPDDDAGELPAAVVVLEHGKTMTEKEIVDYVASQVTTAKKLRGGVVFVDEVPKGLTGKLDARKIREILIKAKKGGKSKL
Chain of Lytic switch protein BZLF1 (P03206 whole entry, the tested form may be a part): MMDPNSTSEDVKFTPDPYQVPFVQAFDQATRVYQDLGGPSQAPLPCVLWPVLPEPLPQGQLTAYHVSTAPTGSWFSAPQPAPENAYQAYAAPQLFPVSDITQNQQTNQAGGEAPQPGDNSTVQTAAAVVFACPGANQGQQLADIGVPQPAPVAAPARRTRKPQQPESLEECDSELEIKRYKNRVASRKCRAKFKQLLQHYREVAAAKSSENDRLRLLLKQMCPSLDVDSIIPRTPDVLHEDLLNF
Chain of Large T antigen (P03070 whole entry): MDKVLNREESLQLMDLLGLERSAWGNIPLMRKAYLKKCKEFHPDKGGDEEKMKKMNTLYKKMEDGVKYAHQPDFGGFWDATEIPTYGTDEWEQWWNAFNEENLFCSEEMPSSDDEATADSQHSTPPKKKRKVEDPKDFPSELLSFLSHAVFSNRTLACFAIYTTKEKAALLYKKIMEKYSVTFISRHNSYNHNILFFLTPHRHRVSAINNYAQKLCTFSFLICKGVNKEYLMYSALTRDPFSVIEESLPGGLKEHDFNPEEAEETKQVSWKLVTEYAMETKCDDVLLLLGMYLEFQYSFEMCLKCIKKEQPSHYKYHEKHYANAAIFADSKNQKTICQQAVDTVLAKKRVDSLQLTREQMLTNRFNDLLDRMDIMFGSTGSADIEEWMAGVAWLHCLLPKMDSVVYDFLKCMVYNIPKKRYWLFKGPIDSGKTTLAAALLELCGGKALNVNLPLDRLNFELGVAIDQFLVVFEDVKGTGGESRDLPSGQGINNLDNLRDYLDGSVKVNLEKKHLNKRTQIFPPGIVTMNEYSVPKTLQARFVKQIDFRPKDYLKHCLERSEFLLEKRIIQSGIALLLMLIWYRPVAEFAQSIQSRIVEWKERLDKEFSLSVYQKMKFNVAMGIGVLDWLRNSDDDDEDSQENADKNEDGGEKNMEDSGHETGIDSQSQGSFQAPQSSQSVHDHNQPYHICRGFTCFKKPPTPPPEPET
Chain of Epstein-Barr nuclear antigen 1 (P03211 whole entry): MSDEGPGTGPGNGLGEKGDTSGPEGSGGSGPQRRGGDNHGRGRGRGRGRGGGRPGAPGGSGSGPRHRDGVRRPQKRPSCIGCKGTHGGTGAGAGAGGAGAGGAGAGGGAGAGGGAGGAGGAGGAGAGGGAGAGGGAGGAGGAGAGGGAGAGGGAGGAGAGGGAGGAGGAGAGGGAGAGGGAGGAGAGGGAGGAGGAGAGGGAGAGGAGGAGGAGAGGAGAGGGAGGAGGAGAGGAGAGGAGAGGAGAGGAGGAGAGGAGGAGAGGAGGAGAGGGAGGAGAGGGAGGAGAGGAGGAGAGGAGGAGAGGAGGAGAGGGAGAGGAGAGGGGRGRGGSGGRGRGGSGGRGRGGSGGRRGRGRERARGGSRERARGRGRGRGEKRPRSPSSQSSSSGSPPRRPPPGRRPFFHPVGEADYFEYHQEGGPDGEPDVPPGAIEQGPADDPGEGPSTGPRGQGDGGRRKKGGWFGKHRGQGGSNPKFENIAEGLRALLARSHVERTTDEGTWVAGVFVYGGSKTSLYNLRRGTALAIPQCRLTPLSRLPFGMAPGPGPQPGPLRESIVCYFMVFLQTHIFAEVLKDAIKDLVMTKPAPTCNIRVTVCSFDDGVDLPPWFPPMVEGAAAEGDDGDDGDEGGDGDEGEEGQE
Chain of Aspartyl aminopeptidase (Q8I2J3 whole entry): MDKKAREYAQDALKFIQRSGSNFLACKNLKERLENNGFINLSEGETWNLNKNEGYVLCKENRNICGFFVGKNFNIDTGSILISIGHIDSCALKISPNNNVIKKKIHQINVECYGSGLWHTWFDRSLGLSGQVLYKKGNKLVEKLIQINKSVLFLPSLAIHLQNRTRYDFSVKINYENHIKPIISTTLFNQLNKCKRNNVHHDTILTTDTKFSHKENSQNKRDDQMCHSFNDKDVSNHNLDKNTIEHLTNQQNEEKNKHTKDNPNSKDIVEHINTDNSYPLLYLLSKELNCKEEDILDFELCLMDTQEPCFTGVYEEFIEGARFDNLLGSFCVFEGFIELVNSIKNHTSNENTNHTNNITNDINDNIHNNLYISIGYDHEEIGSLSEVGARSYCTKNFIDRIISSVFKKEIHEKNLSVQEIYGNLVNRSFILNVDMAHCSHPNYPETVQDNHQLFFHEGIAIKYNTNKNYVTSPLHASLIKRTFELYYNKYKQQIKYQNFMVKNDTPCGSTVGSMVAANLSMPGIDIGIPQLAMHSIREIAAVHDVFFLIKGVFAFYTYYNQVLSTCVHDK
Chain of DNA repair and recombination protein RAD54-like (Q92698 whole entry): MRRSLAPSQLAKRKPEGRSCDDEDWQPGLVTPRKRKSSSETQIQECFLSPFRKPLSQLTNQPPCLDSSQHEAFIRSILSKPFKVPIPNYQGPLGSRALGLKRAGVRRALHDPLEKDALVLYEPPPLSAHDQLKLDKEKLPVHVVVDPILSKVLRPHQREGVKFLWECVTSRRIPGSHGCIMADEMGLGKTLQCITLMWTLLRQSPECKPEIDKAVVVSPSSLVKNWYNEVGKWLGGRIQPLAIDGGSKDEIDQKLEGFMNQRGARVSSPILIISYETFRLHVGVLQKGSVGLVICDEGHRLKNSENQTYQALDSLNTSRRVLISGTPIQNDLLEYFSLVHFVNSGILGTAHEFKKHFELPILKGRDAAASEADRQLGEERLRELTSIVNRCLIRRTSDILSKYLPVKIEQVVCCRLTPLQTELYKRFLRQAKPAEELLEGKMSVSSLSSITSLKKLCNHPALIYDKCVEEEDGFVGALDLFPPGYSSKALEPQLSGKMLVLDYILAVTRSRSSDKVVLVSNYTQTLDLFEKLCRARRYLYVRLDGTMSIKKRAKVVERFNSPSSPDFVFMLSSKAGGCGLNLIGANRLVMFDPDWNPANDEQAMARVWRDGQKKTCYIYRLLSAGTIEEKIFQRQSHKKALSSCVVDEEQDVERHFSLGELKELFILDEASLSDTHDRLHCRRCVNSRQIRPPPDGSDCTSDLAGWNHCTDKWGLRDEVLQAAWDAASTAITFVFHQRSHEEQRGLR

O=C(NCCOc1cccnc1)c1ccc(OC2CCN(Cc3ccccn3)CC2)cc1
active: EC50 [1] 0.158 µM | EC50 [2] 821 nM | EC50 [3] 78.3 µM | EC50 [4] 577 nM | EC50 [6] < 0.1 µM | IC50 [8] 53.3 nM | EC50 [10] 3.96 µM | EC50 [11] 623 nM | EC50 [12] 254 nM
inconclusive: EC50 [5] 0.202 µM | EC50 [7] 334 nM | EC50 [9] 543 nM

c1ccc2c(c1)oc1c(Nc3ccc(CN4CCOCC4)cc3)ncnc12
active: EC50 [13] 12.8 µM | EC50 [14] 15.2 µM | AC50 [15] 65.5 µM

CCCc1cc(-c2nc(N)ncc2-c2ccc3c(c2)OCCCO3)c(O)cc1OC
> 112 µM (not active): EC50 [16] | EC50 [17]
active: EC50 [1] 14.7 µM | EC50 [13] 6.37 µM | EC50 [18] 884 nM | CC50 [19] > 40 µM | EC50 [14] 5.93 µM | EC50 [20] 21 µM | AC50 [21] 3.81 µM
> 120 µM (not active): EC50 [5] | EC50 [6]

CC1CCCC(C)N1S(=O)(=O)c1ccc(NC(=O)CCn2cnc3ccccc3c2=O)cc1 (centres undefined)
16.4 µM (not active): IC50 [22]
> 111 µM (not active): IC50 [23]

Cc1ncc(CO)c(/C=N/NC(=O)c2cc(O)c(O)c(O)c2)c1O
active: EC50 [24] 71.2 µM | IC50 [25] 3.72 µM | IC50 [26] 4.5 µM

COCC(C)NC(=O)NC1(C(F)(F)F)Oc2ccc(Cl)cc2O1 (centres undefined)
> 59.6 µM (not active): IC50 [28]
active: IC50 [27] 1.79 µM | AC50 [21] 6.69 µM
